Laboratory results taken from the supplement of paper PMC10307832.

What was measured:
Assay in all cases: relative viability (nuclei count vs DMSO), 5 days (fraction); higher = more cells survive
[1] = compound: C1=CC(=CC=C1NC(=S)NNC2=C(C=C(C=C2[N+](=O)[O-])C(F)(F)F)[N+](=O)[O-])F [Kobe2602] + Cc1cc(Nc2cc(N3CCN(C)CC3)nc(Sc3ccc(NC(=O)C4CC4)cc3)n2)n[nH]1 [Tozasertib] (partner 0.1 µM)
How it was run: (§1)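 The day after seeding in 1536-well plates, lung cancer cell lines were treated by pin tool with a single drug, or with a fixed anchor-drug dose together with five library-drug doses (not always all listed) in √10 steps. After 5 days, a combined fix-and-stain solution (final 0.05% Triton X-100, 1% formaldehyde, 1 ug/ml Hoechst) was added. Nuclei counted on 4× images gave relative viability as treated counts over vehicle counts, reported as the median of duplicate plates.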

[2] = compound: COc1cc2nccc(Oc3ccc(NC(=O)C4(C(=O)Nc5ccc(F)cc5)CC4)cc3)c2cc1OC [Cabozantinib] + COc1cccc2cc(-c3nc([C@H]4CC[C@H](C(=O)O)CC4)n4ncnc(N)c34)[nH]c12 [OSI-027] (partner 0.5 µM)
How it was run: as §1

[3] = compound: O[C@@H](COc1cccc2ncccc12)CN1CCN([C@@H]2c3ccccc3[C@@H]3[C@H](c4ccccc42)C3(F)F)CC1 [Zosuquidar] + C[C@]1(O)C[C@@H](c2nc(-c3ccc4ccc(-c5ccccc5)nc4c3)c3c(N)nccn32)C1 [Linsitinib] (partner 1 µM)
How it was run: as §1

[4] = compound: O[C@@H](COc1cccc2ncccc12)CN1CCN([C@@H]2c3ccccc3[C@@H]3[C@H](c4ccccc42)C3(F)F)CC1 [Zosuquidar] + Nc1ncn([C@H]2C[C@H](O)[C@@H](CO)O2)c(=O)n1 [Decitabine] (partner 2 µM)
How it was run: as §1

Cell Line | relative viability ([1]; first compound 0.2 µM) | relative viability ([1]; first compound 0.6325 µM) | relative viability ([1]; first compound 2 µM) | relative viability ([1]; first compound 6.325 µM) | relative viability ([1]; first compound 20 µM) | relative viability ([2]; first compound 0.02 µM) | relative viability ([2]; first compound 0.06325 µM) | relative viability ([2]; first compound 0.2 µM) | relative viability ([2]; first compound 0.6325 µM) | relative viability ([2]; first compound 2 µM) | relative viability ([3]; first compound 0.01 µM) | relative viability ([3]; first compound 0.03162 µM) | relative viability ([3]; first compound 0.1 µM) | relative viability ([3]; first compound 0.3162 µM) | relative viability ([3]; first compound 1 µM) | relative viability ([4]; first compound 0.01 µM) | relative viability ([4]; first compound 0.03162 µM) | relative viability ([4]; first compound 0.1 µM) | relative viability ([4]; first compound 0.3162 µM) | relative viability ([4]; first compound 1 µM)
HCC-15 | 0.351 | 0.377 | 0.299 | 0.425 | 0.431 | 0.477 | 0.744 | 0.66 | 0.657 | 0.622 | 0.949 | 0.794 | 0.913 | 0.901 | 0.901 | 0.64 | 0.575 | 0.599 | 0.711 | 0.635
H3255 | 0.628 | 0.612 | 0.488 | 0.55 | 0.607 | 0.527 | 0.662 |  | 0.621 | 0.613 | 1.07 | 0.945 | 0.783 | 1.1 | 0.951 | 0.559 | 0.592 | 0.497 | 0.696 | 0.716
NCI-H1915 | 0.422 | 0.43 | 0.393 | 0.438 | 0.399 | 0.627 | 0.623 | 0.631 | 0.589 | 0.593 | 1.14 | 1.07 | 1.09 | 1.12 | 1.1 | 0.278 | 0.252 | 0.279 | 0.288 | 0.269
NCI-H661 | 0.382 | 0.34 | 0.376 | 0.376 | 0.355 | 0.667 | 0.686 | 0.673 | 0.675 | 0.687 | 0.614 | 0.653 | 0.447 | 0.704 | 0.69 | 0.557 | 0.54 | 0.595 | 0.516 | 0.523
NCI-H2126 | 0.856 | 0.821 | 0.812 | 0.733 | 0.591 |  | 0.798 | 0.706 | 0.71 | 0.884 | 0.71 | 0.707 | 0.543 | 0.755 | 0.719 | 0.571 | 0.592 | 0.624 | 0.627 | 0.538
PC-14 | 0.606 | 0.562 | 0.596 | 0.602 | 0.559 | 0.388 | 0.973 | 0.0936 | 1.03 | 0.865 | 0.918 | 0.97 | 0.904 | 0.94 | 1.02 | 0.224 | 0.176 | 0.212 | 0.195 | 0.205
EMC-BAC-2 | 0.286 | 0.297 | 0.286 | 0.333 | 0.32 | 0.337 | 0.379 | 0.398 | 0.385 | 0.361 | 0.803 | 0.843 | 0.782 | 0.858 | 0.797 | 0.915 | 0.991 | 0.9 | 1.14 | 0.964
NCI-H1437 | 0.429 | 0.403 | 0.412 | 0.322 | 0.439 | 0.896 | 0.963 | 0.882 | 0.921 | 0.922 | 1.06 | 1.01 | 0.936 | 1.08 | 1.05 | 0.567 | 0.561 | 0.644 | 0.56 | 0.592
NCI-H2405 | 0.804 | 0.758 | 0.732 | 0.767 | 0.853 | 0.338 | 0.699 | 0.735 | 0.651 | 0.682 | 0.984 | 0.878 | 0.784 | 0.969 | 0.983 | 0.737 | 0.777 | 0.734 | 0.767 | 0.758
NCI-H1666 | 0.644 | 0.61 | 0.571 | 0.604 | 0.544 | 0.694 | 0.836 | 0.816 | 0.846 | 0.913 | 0.759 | 0.832 | 0.768 | 0.817 | 0.78 | 0.766 | 0.788 | 0.671 | 0.789 | 0.678
NCI-H1993 | 0.515 | 0.549 | 0.573 | 0.53 | 0.56 | 0.511 | 0.528 | 0.569 | 0.519 | 0.543 | 0.707 | 0.783 | 0.698 | 0.695 | 0.706 | 0.609 | 0.615 |  | 0.583 | 0.546
COR-L23 | 0.177 | 0.172 | 0.165 | 0.157 | 0.154 | 0.88 | 0.965 | 0.94 | 0.895 | 0.784 | 0.98 | 0.959 | 0.945 | 1.03 | 0.902 | 0.501 | 0.421 | 0.511 | 0.469 | 0.468
HCC-44 | 0.906 | 0.838 | 0.92 | 0.861 | 0.687 |  | 0.646 | 0.556 | 0.557 | 0.408 | 0.663 | 0.684 | 0.65 | 0.669 | 0.696 | 0.981 | 0.961 | 1 | 0.934 | 0.919
LU99A | 0.287 | 0.323 | 0.286 | 0.237 | 0.298 | 0.231 | 0.298 | 0.274 | 0.31 | 0.311 | 0.5 | 0.54 | 0.483 | 0.539 | 0.659 | 0.835 | 1.09 | 0.946 | 0.917 | 1.04
NCI-H596 | 0.763 | 0.763 | 0.813 | 0.798 | 0.746 | 0.922 | 0.738 | 0.65 | 0.667 | 0.54 | 1.03 | 1.09 | 1.03 | 1.05 | 1.03 | 1.02 | 0.961 | 1.03 | 1.13 | 0.879
NCI-H727 | 0.716 | 0.583 | 0.741 | 0.702 | 0.504 | 0.491 | 0.73 | 0.58 | 0.617 | 0.445 | 0.328 | 0.343 | 0.335 | 0.237 | 0.274 | 0.823 | 0.906 |  | 0.794 | 0.887
